Assay results taken from ChEMBL document CHEMBL6092216, “Development of α-Helical Antimicrobial Peptides with Imperfect Amphipathicity for Superior Activity and Selectivity” (J Med Chem, 2024).
The source made the active and inactive calls. The calls are words filed in the database; no cut-off is given here.

Tests used:
Acinetobacter baumannii [1] = test: Antibacterial activity against Acinetobacter baumannii ATCC 19606 assessed as inhibition of bacterial growth by tube microdilution assay; assay type: functional
Erythrocyte = test: Induction of hemolysis in mouse red blood cells at 1.56 to 100 ug/ml incubated for 1 hr; assay type: toxicity, cell-based; details: dose 1.56-100 µg/ml
HEK-293T = test: Cytotoxicity against HEK293T cells assessed as effect on cell viability at 3.13 to 400 ug/ml incubated for 24 hrs by CCK-8 assay; assay type: toxicity, cell-based; details: human, dose 3.13-400 µg/ml
HaCaT = test: Cytotoxicity against human HaCaT cells assessed as effect on cell viability at 3.13 to 400 ug/ml incubated for 24 hrs by CCK-8 assay; assay type: toxicity, cell-based; details: dose 3.13-400 µg/ml
Acinetobacter baumannii [2] = test: Antibacterial activity against Acinetobacter baumannii 0357 assessed as inhibition of bacterial growth incubated for 24 hrs by tube microdilution assay; assay type: functional
Acinetobacter baumannii [3] = test: Antibacterial activity against Acinetobacter baumannii 10769 assessed as inhibition of bacterial growth incubated for 24 hrs by tube microdilution assay; assay type: functional
Escherichia coli [4] = test: Antibacterial activity against Escherichia coli 0894 assessed as inhibition of bacterial growth incubated for 24 hrs by tube microdilution assay; assay type: functional
Escherichia coli [5] = test: Antibacterial activity against Escherichia coli 5017 assessed as inhibition of bacterial growth incubated for 24 hrs by tube microdilution assay; assay type: functional
Pseudomonas aeruginosa [6] = test: Antibacterial activity against Pseudomonas aeruginosa 90068 assessed as inhibition of bacterial growth incubated for 24 hrs by tube microdilution assay; assay type: functional
Pseudomonas aeruginosa [7] = test: Antibacterial activity against Pseudomonas aeruginosa 60357 assessed as inhibition of bacterial growth incubated for 24 hrs by tube microdilution assay; assay type: functional
Pseudomonas aeruginosa [8] = test: Antibacterial activity against Pseudomonas aeruginosa 17068 assessed as inhibition of bacterial growth incubated for 24 hrs by tube microdilution assay; assay type: functional
Staphylococcus aureus [9] = test: Antibacterial activity against Staphylococcus aureus 08310 assessed as inhibition of bacterial growth incubated for 24 hrs by tube microdilution assay; assay type: functional
Staphylococcus aureus [10] = test: Antibacterial activity against Staphylococcus aureus 15772 assessed as inhibition of bacterial growth incubated for 24 hrs by tube microdilution assay; assay type: functional
Staphylococcus aureus [11] = test: Antibacterial activity against Staphylococcus aureus 15192 assessed as inhibition of bacterial growth incubated for 24 hrs by tube microdilution assay; assay type: functional
Staphylococcus aureus [12] = test: Antibacterial activity against Staphylococcus aureus 157752 assessed as inhibition of bacterial growth incubated for 24 hrs by tube microdilution assay; assay type: functional
Staphylococcus aureus [13] = test: Antibacterial activity against Staphylococcus aureus 11842 assessed as inhibition of bacterial growth incubated for 24 hrs by tube microdilution assay; assay type: functional
Staphylococcus aureus [14] = test: Antibacterial activity against methicillin-resistant Staphylococcus aureus Z assessed as inhibition of bacterial growth incubated for 24 hrs by tube microdilution assay; assay type: functional
Staphylococcus aureus [15] = test: Antibacterial activity against methicillin-resistant Staphylococcus aureus 12 assessed as inhibition of bacterial growth incubated for 24 hrs by tube microdilution assay; assay type: functional
Staphylococcus aureus [16] = test: Antibacterial activity against methicillin-resistant Staphylococcus aureus 21 assessed as inhibition of bacterial growth incubated for 24 hrs by tube microdilution assay; assay type: functional
Staphylococcus aureus [17] = test: Antibacterial activity against methicillin-resistant Staphylococcus aureus 41 assessed as inhibition of bacterial growth incubated for 24 hrs by tube microdilution assay; assay type: functional
Staphylococcus aureus [18] = test: Antibacterial activity against methicillin-resistant Staphylococcus aureus 42 assessed as inhibition of bacterial growth incubated for 24 hrs by tube microdilution assay; assay type: functional
Staphylococcus aureus [19] = test: Antibacterial activity against methicillin-resistant Staphylococcus aureus 51 assessed as inhibition of bacterial growth incubated for 24 hrs by tube microdilution assay; assay type: functional
Staphylococcus aureus [20] = test: Antibacterial activity against methicillin-resistant Staphylococcus aureus 52 assessed as inhibition of bacterial growth incubated for 24 hrs by tube microdilution assay; assay type: functional
Pseudomonas aeruginosa [21] = test: Antibiofilm activity against Pseudomonas aeruginosa ATCC 27853 assessed as inhibition of biofilm formation at 1X to 10XMIC incubated for 24 hrs by crystal violet staining based analysis; assay type: functional, organism-based
Acinetobacter baumannii [22] = test: Antibiofilm activity against preformed Acinetobacter baumannii ATCC 19606 biofilms assessed as biofilm eradication at 1X to 10XMIC incubated for 24 hrs by crystal violet staining based analysis; assay type: functional, organism-based
Staphylococcus aureus [23] = test: Antibiofilm activity against preformed Staphylococcus aureus ATCC 6538 biofilms assessed as biofilm eradication at 1X to 10XMIC incubated for 24 hrs by crystal violet staining based analysis; assay type: functional, organism-based
Pseudomonas aeruginosa [24] = test: Antipersister-activity against Pseudomonas aeruginosa ATCC 27853 assessed as elimination of persister cells preincubated adherent persistent cells with colistin for 24 hrs followed by incubation with drug for 12 hrs; assay type: functional, organism-based
Staphylococcus aureus [25] = test: Antipersister-activity against Staphylococcus aureus ATCC 6538 assessed as elimination of persister cells preincubated adherent persistent cells with vancomycin for 24 hrs followed by incubation with drug for 12 hrs; assay type: functional, organism-based
Cell membrane [26] = test: Induction of membrane permeabilization in Escherichia coli 0894 assessed as increase in fluorescence intensity at 1X to 10XMIC measured for 90 mins by propidium iodide staining based fluorescence analysis; assay type: subcellular
Cell membrane [27] = test: Induction of membrane permeabilization in Acinetobacter baumannii 0357 assessed as increase in fluorescence intensity at 1X to 10XMIC measured for 90 mins by propidium iodide staining based fluorescence analysis; assay type: subcellular
Cell membrane [28] = test: Induction of membrane permeabilization in Pseudomonas aeruginosa 17068 assessed as increase in fluorescence intensity at 1X to 10XMIC measured for 90 mins by propidium iodide staining based fluorescence analysis; assay type: subcellular
Pseudomonas aeruginosa [29] = test: Induction of bacterial cell rupture in Pseudomonas aeruginosa ATCC 27853 assessed as bacterial membrane damage with visible surface irregularities and protrusions at 5XMIC measured after 30 mins scanning electron microscopy; assay type: functional, organism-based
Pseudomonas aeruginosa [30] = test: Induction of bacterial cell rupture in Pseudomonas aeruginosa ATCC 27853 assessed as induction of internal perturbations and breaks along the membrane at 5XMIC measured after 30 mins transmission electron microscopy; assay type: functional, organism-based
Staphylococcus aureus [31] = test: Induction of bacterial cell rupture in Staphylococcus aureus ATCC 6538 assessed as membrane rupture, roughening and blebbing of membrane at 5XMIC measured after 30 mins by scanning electron microscopy; assay type: functional, organism-based
Staphylococcus aureus [32] = test: Bactericidal activity against Staphylococcus aureus ATCC 6538 assessed as elimination of bacterial cells at 5XMIC measured within 1 hr by killing kinetic assay; assay type: functional
Staphylococcus aureus [33] = test: Bactericidal activity against Staphylococcus aureus ATCC 6538 assessed as elimination of bacterial cells at 5X to 10X MIC measured within 3 hrs by killing kinetic assay; assay type: functional
Pseudomonas aeruginosa [34] = test: Ratio of MIC for antibacterial activity against Pseudomonas aeruginosa ATCC 27853 measured following incubation of drug with mouse plasma for 8 hrs to MIC for antibacterial activity against Pseudomonas aeruginosa ATCC 27853; assay type: functional
[35] = Toxicity against C57BL/6J mouse assessed as behavioural changes at 10 to 20 mg/kg, iv measured for 48 hrs post-injection; assay type: organism-based; details: in vivo, dose 10-20 mg/kg
Staphylococcus aureus [36] = test: Antibacterial activity against Staphylococcus aureus ATCC 6538 infected in BALB/c mouse assessed as inhibition of bacterial colonization on wounded skin at 2 mg/ml applied on skin and measured after 2 hrs relative to control; assay type: functional
Acinetobacter baumannii [37] = test: Antibacterial activity against Acinetobacter baumannii ATCC 19606 infected in BALB/c mouse assessed as inhibition of bacterial colonization on wounded skin at 0.1 to 2 mg/ml applied on skin and measured after 2 hrs; assay type: functional, organism-based; details: dose 0.1-2 mg/ml

Substance: H-RRGIKKFIKKVKKVKKAI-OH
- MIC (Acinetobacter baumannii [1]): 2.34 µg/mL
- Activity (Erythrocyte): Non-toxic
- Activity (HEK-293T): Non-toxic
- Activity (HaCaT): Non-toxic
- MIC (Acinetobacter baumannii [2]): 2.34 µg/mL
- MIC (Acinetobacter baumannii [3]): 2.34 µg/mL
- MIC (Escherichia coli [4]): 9.37 µg/mL
- MIC (Escherichia coli [5]): 9.37 µg/mL
- MIC (Pseudomonas aeruginosa [6]): 1.17 µg/mL
- MIC (Pseudomonas aeruginosa [7]): 1.17 µg/mL
- MIC (Pseudomonas aeruginosa [8]): 1.17 µg/mL
- MIC (Staphylococcus aureus [9]): 2.34 µg/mL
- MIC (Staphylococcus aureus [10]): 2.34 µg/mL
- MIC (Staphylococcus aureus [11]): 2.34 µg/mL
- MIC (Staphylococcus aureus [12]): 2.34 µg/mL
- MIC (Staphylococcus aureus [13]): 2.34 µg/mL
- MIC (Staphylococcus aureus [14]): 2.34 µg/mL
- MIC (Staphylococcus aureus [15]): 2.34 µg/mL
- MIC (Staphylococcus aureus [16]): 2.34 µg/mL
- MIC (Staphylococcus aureus [17]): 2.34 µg/mL
- MIC (Staphylococcus aureus [18]): 2.34 µg/mL
- MIC (Staphylococcus aureus [19]): 2.34 µg/mL
- MIC (Staphylococcus aureus [20]): 2.34 µg/mL
- Activity (Pseudomonas aeruginosa [21]): Dose-dependent-effect
- Activity (Acinetobacter baumannii [22]): Active
- Activity (Staphylococcus aureus [23]): Active
- Activity (Pseudomonas aeruginosa [24]): Dose-dependent-effect
- Activity (Staphylococcus aureus [25]): Dose-dependent-effect
- Activity (Cell membrane [26]): Dose-dependent-effect
- Activity (Cell membrane [27]): Dose-dependent-effect
- Activity (Cell membrane [28]): Dose-dependent-effect
- Activity (Pseudomonas aeruginosa [29]): Active
- Activity (Pseudomonas aeruginosa [30]): Active
- Activity (Staphylococcus aureus [31]): Active; Roughening And Blebbing Of Membrane Is Less Pronounced Than In Pseudomonas Aeruginosa
- Activity (Staphylococcus aureus [32]): 99.7%
- Activity (Staphylococcus aureus [33]): 100%
- Ratio (Pseudomonas aeruginosa [34]): 4
- Activity [35]: Non-toxic
- inhibition in vivo at 2000 µg/mL (Staphylococcus aureus [36]): 82.4%
- Activity (Acinetobacter baumannii [37]): Dose-dependent-effect; Less Efficacy Compared To Colistin, Reflected By Reduced Efficacy After Plasma Treatment
